Square brackets hold non-standard residues; d marks the D form. Ends that are not written are not given here. pY = N[C@@H](Cc1ccc(OP(=O)(O)O)cc1)C(=O)O
System: p110β/p85β complexes
Assay: Transcreener ADP formation, soluble monomeric diC8-PIP2 substrate
Assay type: biochemical, mouse
Settings: p110β/p85-niSH2 and p110β/p85-icSH2 complexes
Protocol: Figure 1 Inhibition of p110β by p85-Type Regulatory Subunits and Activation of the Complexes by RTK Phosphopeptide (A) Domain organization of p110β and the regulatory subunits p85α, p85β, and p55γ. The color scheme for the domains is used for all figures, unless otherwise stated. […] The inhibition is released upon addition of the 10 μM PDGFR pY2. […] The y axis is expressed as a change in fluorescence polarization (ΔmP), which is obtained by subtracting the observed polarization for the construct at a given enzyme concentration from the maximum fluorescence polarization for that construct. […]
The lipid kinase activity was determined using the Transcreener ADP2 FP Assay (BellBrook Labs, Madison, WI) according to manufacturer‟s specifications. This non-radioactive assay measures activity by quantitating the amount of ADP formed. The ADP formed by PI3K competes with fluorescent ADP tracer for binding to an anti-ADP antibody, thereby decreasing fluorescence polarization. Because of the competitive nature of this assay, the change in fluorescence polarization signal is not a linear function of enzyme activity, and a convenient measure of enzyme activity is the EC50, or the concentration of enzyme necessary to give half-maximal inhibition of labeled ADP binding to the antibody, for a given concentration of substrate and a fixed time of reaction at initial rate. […]

ESDGG[pY]MDMSKDESID[pY]VPMLDMKGDIKYADIE [pY2, bis-phosphopeptide (PDGFR 735–767, with pY740 and pY751)]
activity with soluble lipid substrate in the presence of pY2: enhanced

Source: PMC3670040, “Structure of Lipid Kinase p110β/p85β Elucidates an Unusual SH2-Domain-Mediated Inhibitory Mechanism” (Molecular Cell, 2011)
